Data: patent US20260207768A1, “NOVEL LINKER DRUGS COMPRISING PHOSPHOANTIGENS, NOVEL CONJUGATES AND THEIR USE IN THERAPY” (priority 2022, published 2026)

How the values were obtained:
[1] = tested on: CD20-positive Burkitt's Lymphoma human tumor cell line Raji; assay: Cellular binding to Raji cells (flow cytometry, MFI); conditions: 30 minutes at 4° C.
Experimental: The CD20-positive Burkitt's Lymphoma human tumor cell line Raji (DSMZ, the German collection of Microorganisms and cell cultures GmbH) was used for in vitro experiments. Raji cells were cultured in complete growth medium (CGM): RPMI-1640 (Lonza) supplemented with 10% Heat-inactivated (HI) Fetal Bovine Serum (FBS) (Gibco) and 80 U/mL Penicillin-Streptomycin solution (Lonza). Raji cells were maintained at 37° C. in a humidified incubator containing 5% CO2 and sub-cultured twice a week. […] Fluorescence intensities were determined by flow cytometry using the NovoCyte (Agilent) and determined as the median fluorescence intensity (MFI). […] EC50 values were calculated in GraphPad Prism as the concentration in μg/mL that gives a response halfway between bottom and top of the curve. […]
These ADCs were tested for their ability to bind Raji cells (using a binding assay, as described in Example 5) and to activate Vdelta2 gammadelta T-cells after overnight incubation with CD20-positive Raji cells. The pretreated Raji cells were cocultured with peripheral blood mononuclear cells (PBMCs) and activation (IFNγ production) and degranulation (CD107a) of Vdelta2 gammadelta T-cells and NK-cells was determined using multicolor flow cytometry, as described for the Functional assay in Example 5.

[2] = tested on: Vdelta2 gammadelta T-cells; assay: Functional assay: Vdelta2 gammadelta T-cell activation (CD107a, IFNγ) after co-culture of PBMCs with pretreated Raji cells; type: cell-based, human; design: key to IFNγ production by Vdelta2 populations, EC50: †: incomplete curve saturation (no EC50 calculation possible); ††: low number of IFNγ-positive cells, no reliable EC50 calculation possible; conditions: Donor two; Raji cells pre-treated overnight, 6 hours coculture with PBMCs
Experimental: Multiple synthesized linker drug compounds were conjugated to rituximab (anti-CD20) and resulting ADCs were tested for their ability to bind Raji cells and to activate Vdelta2 gammadelta T-cells after overnight incubation with CD20-positive Raji cells. The linker drug compounds that were conjugated to rituximab, and resulting ADCs, are within the list reflected in Table 1. The pretreated Raji cells were cocultured with peripheral blood mononuclear cells (PBMCs) and activation (IFNγ production) and degranulation (CD107a) of Vdelta2 gammadelta T-cells and NK-cells was determined using multicolor flow cytometry.
For stimulation with ADCs according to the invention, Raji cells were harvested, diluted to a concentration of 5×10^6 cells/mL and 50 μL (equivalent to 250,000 cells/well) of this cell suspension was seeded into a 96-well plate. […] The recovered PBMCs were harvested, counted and diluted to a concentration of 10×10^6 cells/mL in CGM, and 50 μL/well (equivalent to 0.5×10^6 cells/well) was added to the Raji cells. […]

NK-cells = conditions: shown in WO2023/275025; cited from earlier work

## Rituximab: anti-CD20 antibody rituximab [reference compound]
[1]
  EC50 binding to Raji cells: 3.30 µg/mL
[2]
  CD107a production by Vdelta2 populations, EC50: 0.094 µg/mL
  IFNγ production by Vdelta2 populations, EC50: ††
NK-cells
  Activation of NK-cells (in words): induced activation of NK-cells
